Structures are written as SMILES.

T2 sequence (Q9BXF3 424-538 limits assumed): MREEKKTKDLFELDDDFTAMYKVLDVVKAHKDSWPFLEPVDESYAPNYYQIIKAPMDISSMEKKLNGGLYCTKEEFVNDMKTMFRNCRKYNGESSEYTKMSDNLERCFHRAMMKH

One assay addresses T1, TAF1-BD2 (Homo sapiens, UniProt P21675).
T1 sequence (P21675 1525-1656): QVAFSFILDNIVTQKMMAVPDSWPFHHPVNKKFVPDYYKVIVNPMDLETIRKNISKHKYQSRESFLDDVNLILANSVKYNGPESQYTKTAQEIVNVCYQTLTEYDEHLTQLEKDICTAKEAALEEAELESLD
Kind of assay: TAF1-BD2 TR-FRET Binding Assay. Conditions: Assay: TAF-1.
Experimental: Specifically, in a 384 well ProxiPlate TAF1-BD2 (6 nM final) was combined with biotin-ligand (50 nM final) in 50 mM HEPES (pH 7.5), 50 mM NaCl, 1 mM TCEP, 0.01% (w/v) BSA, and 0.008% (w/v) Brij-35 either in the presence of DMSO (final 0.2% DMSO) or compound dilution series in DMSO. After 10 minutes incubation at room temperature, a mixture Eu-W1024 Anti-6×His antibody (Perkin Elmer AD0110) and SureLight™ Allophycocyanin-Streptavidin (APC-SA, Perkin Elmer CR130-100) were added to a final concentrations of 0.2 nMolar antibody and 25 nMolar APC-SA, respectively. After twenty minutes of equilibration, the plates were read on an Envision instrument and IC50s calculated using a four parameter non-linear curve fit.
For orientation: IC50 means the concentration needed to halve the response being measured. `CC(C)N1CC[C@@H](NC(=O)c2cn(C)c(=O)c3[nH]ccc23)[C@H](F)C1` (relative stereo) [Example 209] had an IC50 of 580 nM.
`CC(C)N1CC[C@H](NC(=O)c2cn(C)c(=O)c3[nH]ccc23)[C@H](C)C1` (relative stereo) [Example 238] returned an IC50 of 2100 nM.
Take `CC(C)N1CC[C@H](NC(=O)c2cn(C)c(=O)c3[nH]ccc23)[C@H](F)C1` (relative stereo) [Example 240]: the IC50 was determined as 3400 nM.
For the compound `CN1CCC(NC(=O)c2cn(C)c(=O)c3[nH]ccc23)CC1` [Example 4, 6-methyl-N-(1-methyl-4-piperidyl)-7-oxo-1H-pyrrolo[2,3-c]pyridine-4-carboxamide], the IC50 came to 320 nM.

Another assay has as its target T2, CECR2 (Homo sapiens, UniProt Q9BXF3).
T2 construct: 424-538 was cloned, expressed, and purified to homogeneity; Flag; made in house
Put plainly: CECR2 TR-FRET Binding Assay. Conditions: IC50 (uM). The source says:
IC50 Measurements for Inhibitors Using CECR2 TR-FRET Binding Assay
In turn, `CC(c1ccccc1)N1CCC(N(C)C(=O)c2cn(C)c(=O)c3[nH]ccc23)CC1` (centres unmarked) [Example 214] registered an IC50 of 0.66 µM.

Still in this assay, the particulars now being: read-out: IC50.
For `CN1CCC(CN(C)C(=O)c2cn(C)c(=O)c3[nH]ccc23)CC1` [Example 188], the IC50 was 2 µM.
The same measure, in the same setting: to `CN(CC1CCN(C2CCC2)CC1)C(=O)c1cn(C)c(=O)c2[nH]ccc12` [Example 189] belongs 1 µM.
As to `CCN1CCC(CN(C)C(=O)c2cn(C)c(=O)c3[nH]ccc23)CC1` [Example 191], the IC50 turned out to be 0.59 µM.
Still for that read-out and setting: to `CN(CC1CCN(C2CC2)CC1)C(=O)c1cn(C)c(=O)c2[nH]ccc12` [Example 192] belongs 1.4 µM; to `CC(c1ccccc1)N1CCC(CN(C)C(=O)c2cn(C)c(=O)c3[nH]ccc23)CC1` (centres unmarked) [Example 197], 0.73 µM.
For `CN(CC1CCN(Cc2ccccc2F)CC1)C(=O)c1cn(C)c(=O)c2[nH]ccc12` [Example 201], the IC50 stood at 0.99 µM.
As to `CN(CC1CCN(Cc2cccc(F)c2)CC1)C(=O)c1cn(C)c(=O)c2[nH]ccc12` [Example 202], the IC50 is 1.3 µM.
With `CN(CC1CCN(Cc2ccc(F)cc2)CC1)C(=O)c1cn(C)c(=O)c2[nH]ccc12` [Example 203], the IC50 worked out at 1.1 µM.
For the compound `Cc1cccc(CN2CCC(CN(C)C(=O)c3cn(C)c(=O)c4[nH]ccc34)CC2)c1` [Example 204], the IC50 was found to be 1.1 µM.
As for `CN(CC1CCN(C2CCCC2)CC1)C(=O)c1cn(C)c(=O)c2[nH]ccc12` [Example 205], the IC50 came to 0.71 µM.
For `CN(CC1CCN(CC2CCCCC2)CC1)C(=O)c1cn(C)c(=O)c2[nH]ccc12` [Example 206], the IC50 was 0.37 µM.
Same read-out and setting: to `CC(C)CN1CCC(N(C)C(=O)c2cn(C)c(=O)c3[nH]ccc23)CC1` [Example 207, N-(1-isobutyl-4-piperidyl)-N,6-dimethyl-7-oxo-1H-pyrrolo[2,3-c]pyridine-4-carboxamide] belongs 0.81 µM.
As to `CN(C(=O)c1cn(C)c(=O)c2[nH]ccc12)C1CCN(CC2CC2)CC1` [Example 208], the IC50 stood at 1.2 µM.
`CN1CCC(C)(CNC(=O)c2cn(C)c(=O)c3[nH]ccc23)CC1` [Example 211, N-[(1,4-dimethyl-4-piperidyl)methyl]-6-methyl-7-oxo-1H-pyrrolo[2,3-c]pyridine-4-carboxamide]: the IC50 is 2.2 µM.
Regarding `CC(C)N1CCC(C)(CNC(=O)c2cn(C)c(=O)c3[nH]ccc23)CC1` [Example 212, N-[(1-isopropyl-4-methyl-4-piperidyl)methyl]-6-methyl-7-oxo-1H-pyrrolo[2,3-c]pyridine-4-carboxamide], the IC50 was 1.7 µM.
With `CN(C(=O)c1cn(C)c(=O)c2[nH]ccc12)C1CCN(Cc2ccc(C#N)cc2)CC1` [Example 213, N-[1-[(4-cyanophenyl)methyl]-4-piperidyl]-N,6-dimethyl-7-oxo-1H-pyrrolo[2,3-c]pyridine-4-carboxamide], the IC50 worked out at 0.71 µM.
As for `CN(C(=O)c1cn(C)c(=O)c2[nH]ccc12)C1CCN(Cc2ccccc2F)CC1` [Example 216], the IC50 was determined as 1.2 µM.
As for `Cc1ccc(CN2CCC(N(C)C(=O)c3cn(C)c(=O)c4[nH]ccc34)CC2)cc1` [Example 218], the IC50 was 0.77 µM.
`CN(C(=O)c1cn(C)c(=O)c2[nH]ccc12)C1CCN(Cc2cccc(C#N)c2)CC1` [Example 220]: the IC50 is 1.1 µM.
Turning to `COc1ccc(CN2CCC(N(C)C(=O)c3cn(C)c(=O)c4[nH]ccc34)CC2)cc1` [Example 221], the IC50 was determined as 0.67 µM.
As to `CN(C(=O)c1cn(C)c(=O)c2[nH]ccc12)C1CCN(Cc2ccccc2Cl)CC1` [Example 223], the IC50 was determined as 0.97 µM.
On the same count and under the same terms, to `CN(C(=O)c1cn(C)c(=O)c2[nH]ccc12)C1CCN(Cc2cccc(Cl)c2)CC1` [Example 224] belongs 0.78 µM.
Same read-out and setting: the same measure for `COCCN1CCC(N(C)C(=O)c2cn(C)c(=O)c3[nH]ccc23)CC1` [Example 225]: 1.4 µM; for `CN(C(=O)c1cn(C)c(=O)c2[nH]ccc12)C1CCN(CCC2CC2)CC1` [Example 226]: 0.7 µM.
As to `CCN(C(=O)c1cn(C)c(=O)c2[nH]ccc12)C1CCN(C(C)C)CC1` [Example 227], the IC50 came to 2 µM.
Regarding `CN(CC1CCN(CCC2CCCCC2)CC1)C(=O)c1cn(C)c(=O)c2[nH]ccc12` [Example 229], the 50% inhibitory concentration (IC50) worked out at 0.64 µM.
On to `CN(CC1CCN(CC2CCCOC2)CC1)C(=O)c1cn(C)c(=O)c2[nH]ccc12` (centres unmarked) [Example 230], for which the IC50 is 0.79 µM.
For the compound `COCCCN1CCC(CN(C)C(=O)c2cn(C)c(=O)c3[nH]ccc23)CC1` [Example 232], the 50% inhibitory concentration (IC50) is 1.2 µM.
As for `CN(CC1CCN(CC2CCC2)CC1)C(=O)c1cn(C)c(=O)c2[nH]ccc12` [Example 233], the IC50 was 0.77 µM.
For the compound `CN(CC1CCN(CC2CCOCC2)CC1)C(=O)c1cn(C)c(=O)c2[nH]ccc12` [Example 234], the IC50 is 1 µM.
Regarding `CC(C)N1CCCC(NC(=O)c2cn(C)c(=O)c3[nH]ccc23)CC1` (centres unmarked) [Example 241], the IC50 worked out at 1.1 µM.
Turning to `CC(C)N1C2CCC1CC(N(C)C(=O)c1cn(C)c(=O)c3[nH]ccc13)C2` (centres unmarked) [Example 242], the IC50 worked out at 1.4 µM.
For `CC(C)N1CCC(N(C(=O)c2cn(C)c(=O)c3[nH]ccc23)C2CC2)CC1` [Example 243], the IC50 is 2 µM.
For the compound `C=CCn1cc(C(=O)N(C)[C@H]2[C@@H]3CN(c4ccnc(C#N)n4)C[C@@H]32)c2cc[nH]c2c1=O` [Example 249, 6-allyl-N-[(1S,5R)-3-(2-cyanopyrimidin-4-yl)-3-azabicyclo[3.1.0]hexan-6-yl]-N-methyl-7-oxo-1H-pyrrolo[2,3-c]pyridine-4-carboxamide], the IC50 turned out to be 4.8 µM.
Regarding `C=CCn1cc(C(=O)N(C)C2C3CN(c4ccncn4)CC32)c2cc[nH]c2c1=O` (centres unmarked) [Example 251], the IC50 was 6.2 µM.
For `CN(C(=O)c1cn(C)c(=O)c2[nH]ccc12)C1CCN(CCc2ccccc2F)CC1` [Example 253], the IC50 turned out to be 0.98 µM.
With `CN(C(=O)c1cn(C)c(=O)c2[nH]ccc12)C1CCN(CCc2ccc(Cl)cc2)CC1` [Example 254], the IC50 is 0.7 µM.
Same read-out and setting: to `C=CCn1cc(C(=O)N(C)C2CCN(c3cc(C4CC4)nc(C)n3)CC2)c2cc(C)[nH]c2c1=O` [Example 266] belongs 0.03 µM; to `C=CCn1cc(C(=O)N(C)C2CCN(c3cc(C)nc(C4CC4)n3)CC2)c2cc(C)[nH]c2c1=O` [Example 267, 6-allyl-N-(1-(2-cyclopropyl-6-methylpyrimidin-4-yl)piperidin-4-yl)-N,2-dimethyl-7-oxo-6,7-dihydro-1H-pyrrolo[2,3-c]pyridine-4-carboxamide], 0.017 µM; to `C=CCn1cc(C(=O)N(C)C2CCN(c3cc(-c4cccnc4C)ncn3)CC2)c2cc(C)[nH]c2c1=O` [Example 268, 6-allyl-N,2-dimethyl-N-[1-[6-(2-methyl-3-pyridyl)pyrimidin-4-yl]-4-piperidyl]-7-oxo-1H-pyrrolo[2,3-c]pyridine-4-carboxamide], 0.023 µM.
Regarding `C=CCn1cc(C(=O)N(C)C2CCN(c3cc(-c4ccco4)ncn3)CC2)c2cc(C)[nH]c2c1=O` [Example 269], the IC50 came to 0.033 µM.
For `C=CCn1cc(C(=O)N(C)C2CCN(c3cc(-c4ccccc4Cl)ncn3)CC2)c2cc(C)[nH]c2c1=O` [Example 270], the IC50 is 0.018 µM.
`C=CCn1cc(C(=O)N(C)C2CCN(c3cc(-c4ccccn4)ncn3)CC2)c2cc(C)[nH]c2c1=O` [Example 271, 6-allyl-N,2-dimethyl-7-oxo-N-[1-[6-(2-pyridyl)pyrimidin-4-yl]-4-piperidyl]-1H-pyrrolo[2,3-c]pyridine-4-carboxamide]: the IC50 came out at 0.011 µM.
As for `C=CCn1cc(C(=O)N(C)C2CCN(c3cc(-c4ncccc4C)ncn3)CC2)c2cc(C)[nH]c2c1=O` [Example 272], the IC50 was determined as 0.035 µM.
Take `C=CCn1cc(C(=O)N(C)C2CCCc3ccccc32)c2cc(C)[nH]c2c1=O` (centres unmarked) [Example 275, 6-allyl-N,2-dimethyl-7-oxo-N-tetralin-1-yl-1H-pyrrolo[2,3-c]pyridine-4-carboxamide]: the IC50 stood at 0.11 µM.
As for `C=CCn1cc(C(=O)N(C)C2CCCc3ncccc32)c2cc(C)[nH]c2c1=O` (centres unmarked) [Example 276], the IC50 came to 0.038 µM.
For the compound `C=CCn1cc(C(=O)N(C)C2CCOc3ccccc32)c2cc(C)[nH]c2c1=O` (centres unmarked) [Example 277], the IC50 amounted to 0.053 µM.
On to `C=CCn1cc(C(=O)N(C)C2CCOc3cc(F)ccc32)c2cc(C)[nH]c2c1=O` (centres unmarked) [Example 278], for which the IC50 is 0.057 µM.
Still for that read-out and setting: the same measure for `C=CCn1cc(C(=O)N(C)C2CCCc3cnccc32)c2cc(C)[nH]c2c1=O` (centres unmarked) [Example 283, 6-allyl-N,2-dimethyl-7-oxo-N-(5,6,7,8-tetrahydroisoquinolin-5-yl)-1H-pyrrolo[2,3-c]pyridine-4-carboxamide]: 0.044 µM; for `C=CCn1cc(C(=O)N(C)C2CCCc3ccc(F)cc32)c2cc(C)[nH]c2c1=O` (centres unmarked) [Example 284]: 0.053 µM; for `C=CCn1cc(C(=O)N(C)C2CCCc3c(C)cccc32)c2cc(C)[nH]c2c1=O` (centres unmarked) [Example 285]: 0.15 µM.

Source of the values: patent publication US10258603B2 (priority 2014, dated 2019).
